Laboratory results as given in patent US9034825B2, “Treatment of myocardial injury with humanin analogs” (Albert Einstein College of Medicine of Yeshiva University, priority 2007, dated 2015).
Where no end group is shown, it is not given here.

What was measured:
NIT cells = assay: Survival, STAT-3 and ERK activation in NIT cells; format: cell-based
Excerpt: Z-humanin, […] (SEQ ID NO:19).

[1] = test system: pAKT and pSTAT-3 in hepatocytes; assay: Western blot of Phospho-STAT3 and Phospho-AKT in primary hepatocytes; format: cell-based, rat
Description: Single-cell suspensions of hepatocytes were obtained from perfusions of Sprague-Dawley rats using the procedure of Berry and Friend (1969) and the perfusion mixture of Leffert et al (1979). Hepatocyte glucose production was estimated after a 24 hr treatment with HN, F6A and saline as described before (Berg et al. 2001). In a separate set of experiment, hepatocytes were lysed, and protein extracted in RIPA lysis buffer at 30, 60 and 360 min post treatment with FIN, F6A and saline. The cell lysates were then subject to western blotting for Phospho-STAT3 (Tyr705), total-STAT3, Phospho-AKT (Ser473), and total-AKT expression (antibodies purchased from Cell Signaling, #9131, #9132, #9271, #9272).

Sprague-Dawley rats [2] = assay: Intravenous infusion of humanin or analogs during hyperinsulinemic clamp; format: in vivo, rat; settings: IV during hyperinsulinemic clamp
Description: To study the acute effects of an infusion of IGFBP-3, two groups of awake, unstressed, chronically catheterized Sprague-Dawley rats (˜300 g) were studied for 300 min (n=3 in each group) under hyperinsulinemic clamp (as previously described). From 120 min the rats received a primed continuous infusion of humanin (0.375 mg/kg/hr) or saline (control) for an additional 2 h. Plasma samples for determination of [3H]glucose and [3H] water specific activities were obtained at 10-min intervals during the basal and clamp periods. Steady state conditions for the plasma glucose concentration and specific activity were achieved within 90 min in all the studies. Plasma samples for determination of HN, insulin and FFA concentrations were collected at 30-min intervals throughout the study. All determinations were also performed on portal vein blood obtained at the end of the experiments. The total amount of blood drawn during the entire study for various assays is ˜3 cc. After separation of plasma (subsequently used for analysis), the red blood cells were reconstituted in saline and infused back into the animal.
To determine if peripheral infusion of the humanin analog colivelin affects insulin action, saline or colivelin (one hundredth of the dose of humanin) was infused intravenously during hyperinsulinemic clamp to two groups of rats that were matched for body weight (˜300 gm), visceral fat (˜3.5 grams), basal glucose (˜135 mg % or 7 mM). Colivelin increased hepatic insulin sensitivity by 33% while peripheral glucose uptake was unchanged (FIG. 14).
A primed-continuous ICV infusion of HN, F6A-HN (total dose of 20 μg), STAT-3 inhibitor (75 pmol) (Buettner et al. 2006), or aCSF was initiated at t=0 and maintained for the remainder of the experiment (FIG. 15A). Pancreatic insulin-clamp studies or euglycemic-hyperinsulinemic clamps were performed in conscious, unrestrained, catheterized mice for last 120 minutes as described previously (Bahar et al. 2006, Muzumdar et al. 2006). In the intra-venous group, HN, F6A, Colivelin, and HNGF6A were infused intravenously and hyperinsulinemic clamps were performed as described previously (Loeb et al. 2005). Estimation of glucose, glucose fluxes, insulin, FFA were done as described previously (Loeb et al. 2005). HN measurements were performed by an in-house, ELISA utilizing affinity purified humanin antibodies that recognize both human and rat humanin and has a limit of detection of 0.1 ng/ml (Hwang, and Cohen personal communication).

Sprague-Dawley rats [3] = assay: ICV infusion of IGF-1, IGFBP-3 or NLS mutant with basal and hyperinsulinemic clamp; format: in vivo, rat; settings: for Glycogen synthesis, Basal / Glycolysis, Basal / HGP, Basal: basal period; for GIR, Clamp: hyperinsulinemic clamp 3 mU/kg/min; for FFA: last 60 min; for whole body glucose disposal / peripheral glucose uptake (Rd) compared to controls: final 60 min; for infused human peptide in the rat periphery: after ICV infusion
Excerpt: Young (3 mo old, n=6 in each group), male Sprague-Dawley rats (Charles River Laboratories, Wilmington, Mass.) were used for this study. Rats were housed in individual cages and were subjected to a standard light (6:00 AM to 6:00 PM)—dark (6:00 PM to 6:00 AM) cycle. All rats were fed ad libitum using regular rat chow that consisted of 64% carbohydrate, 30% protein, and 6% fat with a physiological fuel value of 3.3-kcal/g chow. In the rats that received ICV infusions, 2 to 4 weeks before the in vivo study, the rats were anesthetized by inhalation of isoflurane and a cannula was placed ICV in the third ventricle for infusions of IGF-1, IGFBP-3 or IGFBP-3 mutant or artificial cerebrospinal fluid (aCSF), as previously described (Muzumdar et al., 2003) (FIG. 1). Briefly, a 26-gauge stainless steel guide cannula (Plastics One, Roanoke, Va.) was chronically implanted into the third ventricles using the following coordinates from bregma: anterior-posterior; +0.2 mm dorsal-ventral; −9.0 mm medial-lateral; 0.0 directly on the mid-sagittal suture, followed by a 28-gauge dummy cannula, inserted to prevent clogging of the guide cannula. The implant was secured to the skull with Caulk Grip dental cement, and the skin was closed over the implant using wound clips. The recovery of rats from the surgical stress was monitored with daily weight, food intake, and movement.
Upon recovery of body weight, usually a week, indwelling catheters were placed in the right internal jugular vein and in the left carotid artery (Muzumdar et al., 2003). The venous catheter was extended to the level of the right atrium, and the arterial catheter was advanced to the level of the aortic arch. Recovery was continued until body weight was within 3% of the pre-operative weight (˜4-6 days). In the rats that received peripheral IGFBP-3, only the vascular catheters were placed.
Studies were performed in unrestrained rats using the insulin clamp technique, in combination with high performance liquid chromatography-purified [3-^3H]glucose and [U-^14C]lactate infusions, as described previously (Liu et al., 1998). Food was removed for ˜5 h before the in vivo protocol. All studies lasted 360 min and included a 120-min equilibration period, a 120-min basal period for assessment of the basal glucose turnover, and a 120-min hyperinsulinemic clamp period. All rats received ICV infusions (bolus followed by continuous ICV infusions of IGF-1, IGFBP-3, IGFBP-3 mutant or aCSF, depending on the group) over the entire 6 hours of the study. At the beginning of the basal period and 120 min before starting the glucose/insulin infusions, a primed-continuous infusion of high performance liquid chromatography-purified [3-^3H]glucose (NEN Life Science Products, Boston, Mass.; 20 μCi of bolus, 0.2 μCi/min) was initiated and maintained throughout the remaining 4 h of the study. In the final 2 hours of the study, the rats were subjected to hyperinsulinemic clamp. The protocol followed during the insulin clamp study was similar to that previously described (Liu et al., 1998). Briefly, a primed-continuous infusion of regular insulin (3 milliunits/kg·min) was administered, and a variable infusion of a 25% glucose solution was started and periodically adjusted to clamp the plasma glucose concentration at 7-8 mM. To prevent endogenous insulin secretion and in order to control for possible effects of ICV infusions on the endocrine pancreas, somatostatin (1.5 μg/kg·min) was also infused in all the groups. [U-^14C]Lactate (5 μCi of bolus/0.25 μCi/min) was infused during the last 10 min of the study.
A bolus of hIGF-1 (0.3 mcg, a gift from Tercica, South San Francisco) was followed by a continuous infusion over 6 hours (total dose of 1 mcg, 0.06 μg/kg/hr).
A bolus of non glycosylated hIGFBP-3 (1.25 μg, generously provided by Celtrix, Mountain View Calif.) was followed by a continuous infusion over 6 hours (total dose of 5.25 mcg, 0.26 μg/kg/hr). […]

PEPCK mRNA in the liver = assay: Hepatic PEPCK mRNA by qRT-PCR at end of clamp after ICV infusion; format: in vivo, rat; settings: ICV infusion for 6 h, end of clamp (Example 1)
Description: (§1) Total RNA was extracted following Clontech's protocol. First-stranded cDNA was synthesized from 1 μg of total RNA using Superscript III (Gibco, Gaithersburg, Md.). Hepatic glucose-6-phosphatase (Glc-6-Pase) and phosphoenolpyruvate carboxykinase (PEPCK) mRNA abundance were assessed by qRT-PCR as described previously (Buettner et al., 2005). Quantification of these peptides and their copy number was normalized for GAPDH and 18S to correct for loading irregularities. The data presented are those normalized by GAPDH.

[4] = test system: Glc-6-Pase mRNA in the liver; assay: Hepatic Glc-6-Pase mRNA by qRT-PCR at end of clamp after ICV infusion; format: in vivo, rat
Description: as §1

IGF-1 = IGF-1 (Homo sapiens, UniProt P05019); assay: Western ligand blots with 125I-labeled IGF-1; format: binding; settings: data not shown
[5] = test system: mice, myocardial ischemia-reperfusion (I/R) injury; assay: Murine myocardial ischemia-reperfusion injury; format: in vivo, mouse
Description: The cardioprotective effects of a single-dose of humanin analog HNG treatment were investigated in a murine model of myocardial ischemia-reperfusion (I/R) injury. Mice were subjected to transient myocardial ischemia for a period of 45 min followed by 24 hour reperfusion. HNG (1, 5, 10, 25, 50 and 200 microgram) or vehicle (saline) was administered intraperitoneally one hour before ischemia.

[6] = test system: memory impairment caused by AD-related insults; settings: literature (Tajima et al., 2005); cited from earlier work
BP3KO MEFs = assay: Apoptosis ELISA in IGFBP3 KO mouse embryonic fibroblasts; format: cell-based; settings: 24 hours, 100 nM of peptides
Description: Mouse embryonic fibroblasts derived from normal and IGFBP3 KO mice were used to test the effects of humanin and its analogues on survival. Apoptosis ELISA was used as an output measure and cells were treated for 24 hours with 100 nM of peptides. […] Thus, the HNGF6A humanin analogue has non-obvious properties that are different from previously described humanin derivatives and has increased potency as a result of its specific molecular alteration leading to reduced IGFBP-3 binding.

[7] = humanin 0.375 mg/kg/hr, colivelin one hundredth of the dose of humanin
[8] = ICV IGF-1 1 μg over 6 h, hyperinsulinemic clamp
[9] = ICV infusion, hyperinsulinemic clamp
[10] = ICV IGFBP-3 or NLS mutant over 6 h
[11] = ICV IGFBP-3 or NLS mutant over 6 h, hyperinsulinemic clamp

IGF-1, sequence (P05019 49-118): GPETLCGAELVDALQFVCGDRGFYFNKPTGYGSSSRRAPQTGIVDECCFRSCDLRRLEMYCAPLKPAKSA

MAPRGASCLLLLTGEIDLPVARRA (Humanin analog HNGF6AK21A)
potency in survival, STAT-3 activation and ERK activation relative to humanin (NIT cells): much greater potency than humanin

MAKRGLNCLPHQVSEIDLSVQKRI (Danio rerio) [Z-humanin]
potency in survival, STAT-3 activation and ERK activation relative to humanin (NIT cells): two-fold greater potency than humanin

MAPRGASCLLLLTSEIDLPVKRRA [F6A HN, maprgascll lltseidlpv krra]
pAKT or pSTAT-3 in hepatocytes [1]: did not elicit significant changes

sallrsipap agasrllllt geidlp (SALLRSIPAPAGASRLLLLTGEIDLP; Humanin analog colivelin)
HGP / hepatic insulin action (Sprague-Dawley rats [2]; HN 0.375 mg/kg/hr, Colivelin 0.00375 mg/kg/hr): significant further enhancement in hepatic insulin action | increase in hepatic insulin sensitivity (Sprague-Dawley rats [2]; [7]): 33% | peripheral glucose uptake (Sprague-Dawley rats [2]; [7]): unchanged

IGF-1: hIGF-1, Insulin-like growth factor-1, a gift from Tercica
Glycogen synthesis, Basal (Sprague-Dawley rats [3]; ICV IGF-1 1 μg over 6 h): 4.87 ± 0.87 | Glycolysis, Basal (Sprague-Dawley rats [3]; ICV IGF-1 1 μg over 6 h): 7.02 ± 0.93 mg/kg/min | HGP, Basal (Sprague-Dawley rats [3]; ICV IGF-1 1 μg over 6 h): 12.4 ± 1.65 mg/kg/min | Glycogen synthesis, Clamp (Sprague-Dawley rats [3]; [8]): 8.09 ± 0.67 | Glycolysis, Clamp (Sprague-Dawley rats [3]; [8]): 13.53 ± 1.17 mg/kg/min | HGP, Clamp (Sprague-Dawley rats [3]; [8]): 2.49 ± 0.54 mg/kg/min | Rd, Clamp (Sprague-Dawley rats [3]; [8]): 21.62 ± 0.74 mg/kg/min | GIR, Clamp (Sprague-Dawley rats [3]; ICV IGF-1 1 μg over 6 h): 19.08 ± 1.55 mg/kg/min | FFA (Sprague-Dawley rats [3]; [8]): 0.23 ± 0.02 mEq/l | IGF-1, human (Sprague-Dawley rats [3]; ICV IGF-1 1 μg over 6 h, peripheral plasma): 0 ng/mL | improvement in hepatic insulin action (lower HGP than controls) (Sprague-Dawley rats [3]; ICV IGF-1, insulin clamp 3 mU/kg/min): 50% | gluconeogenesis (Sprague-Dawley rats [3]; [9]): 0.54 ± 0.2 mg/kg/min | glycogenolysis / hepatic glucose fluxes compared to controls (Sprague-Dawley rats [3]; [9]): marked decrease | insulin induced suppression of FFA compared to controls (Sprague-Dawley rats [3]; [9]): significantly higher | whole body glucose disposal / peripheral glucose uptake (Rd) compared to controls (Sprague-Dawley rats [3]; [9]): tended to augment | infused human peptide in the rat periphery (Sprague-Dawley rats [3]): No hIGF-1 was detected | infused human peptide in the rat periphery (Sprague-Dawley rats [3]; listed as human IGF-1): No human IGF-1, hIGFBP-3 or NLS-IGFBP-3 was identified | PEPCK mRNA in the liver, ratio to GAPDH (PEPCK mRNA in the liver): 3.4 ±0.6 | expression of G-6Pase lower than aCSF ([4]; ICV IGF-1, end of clamp): 3 fold | expression of G-6Pase in the liver, ratio to GAPDH ([4]; ICV infusion for 6 h, end of clamp (Example 1)): 2.6 ±0.6

NLS: non-glycosylated NLS mutant of IGFBP-3 with two amino acid substitutions (K228E and R230G)
Glycogen synthesis, Basal (Sprague-Dawley rats [3]; [10]): 5.34 ± 0.38 | Glycolysis, Basal (Sprague-Dawley rats [3]; [10]): 7.40 ± 0.71 mg/kg/min | HGP, Basal (Sprague-Dawley rats [3]; [10]): 13.00 ± 0.72 mg/kg/min | Glycogen synthesis, Clamp (Sprague-Dawley rats [3]; [11]): 6.93 ± 0.37 | Glycolysis, Clamp (Sprague-Dawley rats [3]; [11]): 10.44 ± 0.96 mg/kg/min | HGP, Clamp (Sprague-Dawley rats [3]; [11]): 5.37 ± 0.65 mg/kg/min | Rd, Clamp (Sprague-Dawley rats [3]; [11]): 17.38 ± 1.11 mg/kg/min | GIR, Clamp (Sprague-Dawley rats [3]; [10]): 11.98 ± 1.14 mg/kg/min | FFA (Sprague-Dawley rats [3]; [11]): 0.35 ± 0.05 mEq/l | h-IGFBP-3 (Sprague-Dawley rats [3]; ICV IGFBP-3 or NLS mutant over 6 h, peripheral plasma): 0 ng/mL | glycogenolysis / hepatic glucose fluxes compared to controls (Sprague-Dawley rats [3]; [9]): no changes in glucose fluxes compared to controls | whole body glucose disposal / peripheral glucose uptake (Rd) compared to controls (Sprague-Dawley rats [3]; [9]): did not result in significant changes | infused human peptide in the rat periphery (Sprague-Dawley rats [3]): No human IGF-1, hIGFBP-3 or NLS-IGFBP-3 was identified | binding to 125I-labeled IGF-1 (IGF-1): bound equally

maprgfscll lltgeidlpv krra (MAPRGFSCLLLLTGEIDLPVKRRA; Humanin analog S14G (HNG)) [humanin analogue in which serine at position 14 is replaced by glycine]
myocardial injury ([5]; single dose IP one hour before 45 min ischemia, 24 hour reperfusion): decreased myocardial injury | doses at which reduced myocardial infarct was observed ([5]; single dose IP one hour before ischemia, 1-200 microgram tested): ≥ 5 µg | potency relative to native HN in rescue activity against AD-related insults in vivo [6]: 1000 times | potency on survival (Apoptosis ELISA) (BP3KO MEFs): equal potency
